These results are taken from patent US6323219A, “Methods for treating immunomediated inflammatory disorders” (Ortho-McNeil Pharmaceutical, Inc., priority 1999, dated 2001).

pIC50: −log10 of the molar value. Where two headings read alike, the source gives them in different places.

By half-life is commonly meant the time needed for the level to fall by half in the phase considered. Lower therefore signals rapid decline. In general, pIC50 refers to −log10 of the IC50, conventionally taken in molar units. High values mean a small IC50, low ones a large IC50. One may read the bioavailability as the share of a dose that reaches the circulation, judged against a reference dose that is usually intravenous. Higher therefore signals much systemic uptake. What is called inhibition is the change of the read-out against control, counted positive when it falls.

One series is described as follows: in vivo. More on the design: species or system male rats (Long Evans). The note with it: rat, iv. How it is done:
Since the compounds of the formula (l) are also potent thrombin inhibitors (see U.S. Pat. No. 5,523,308), an ex vivo thrombin assay was conducted to determine the duration of action of the compounds of Formula I. For this i.v. assay male rats (Long Evans, 350-500 g) were implanted with a teflon cannulae via the femoral artery while under anesthesia (pentobarbital i.p., 35 mg/kg). After surgery, the animals were individually housed in standard cages, fed with rat chow (Hanlan, #8604) and continuously infused with physiological saline to maintain arterial patency, (0.5 mL/h, intra arterial) using a spring-shielded swiveling tether connected to an infusion system. The animals were allowed to recover for at least 24 h after the surgical procedure.
A sample of blood was drawn from the animals 15 min before dosing with the inhibitor (0.25 mL blood is drawn into a syringe containing 0.025 mL of Sigma sodium citrate). The test compound was dispersed in water and delivered to the animal (0.25 mL) via the femoral vein. The inhibitor was given at a concentration (mg/mL) which produced 80% inhibition of VO in a plasma sample at 5 min after infusion. Blood was drawn from the arterial line (blood:sodium citrate, 0.25/0.025 mL ) at regular intervals after dosing (5, 10, 15, 30, 60 and 120 min) and placed in a centrifuge tube. A plasma sample was obtained by centrifuging the blood at 10,000 rpm for 5 min. This sample is analyzed for thrombin inhibition using the chromogenic assay, described below.
The rate of increase in absorbance at 405 nm of synthetic peptides (50 μM Spectozyme® TH (H-D-HHT-Ala-Arg-pNA-2AcOH), American Diagnostica) is measured in the presence of plasma with a microplate reader (Molecular Devices) at 37° C. using an aqueous buffer (10 mM Tris, 10 mM Hepes, 150 mM NaCl, 0.1% PEG; pH 7.4). The buffer was added to the plasma samples (1:1) dilution prior to delivery to the microplate (1:5 and 1:50 for final plasma dilutions of 1:10 and 1:100 respectively) followed by the enzyme (1 nM human α thrombin). Datum was collected over a 30 min period and the initial rate of substrate hydrolysis (V0 (mOD/min)) was calculated with an analysis program (Softmax, Molecular Devices).
The time to half plasma elimination (t 1/2) was calculated from the slope of VO vs. time, using the following equation: […]. These datum are presented in Table L. In Table L, the compound # corresponds to the compound number described in U.S. Pat. No. 5,523,308.

For a further series, the target named is human Lung Tryptase. Description: Tryptase IC50 Method. The series is classed as biochemical. The note with it: 37° C., 1.0 nM enzyme, 500 μM substrate. On the procedure:
(§1) The enzyme reaction is started by the addition of enzyme ([E]: 1.0 nM human Lung Tryptase; Cortex Biochem CP3033). Data is collected over a period of 30 min. and the initial rate of substrate hydrolysis (Vo (mOD/min)) is calculated. Inhibition is calculated by comparing to wells containing no inhibitor (vehicle) and IC50 s are determined using a four parameter fit logistics model. […] The enzyme reaction is started by the addition of enzyme ([E]: 10.0 nM Human Skin Chymase; Cortex Biochem CPl 129). Data is collected over a period of 30 min. and the initial rate of substrate hydrolysis (Vo (mOD/min)) is calculated. Inhibition is calculated by comparing to wells containing no inhibitor (vehicle) and IC50 s are determined using a four parameter fit logistics model. Chymase 10 μM Screen Method: The optical density at 405 nm due to hydrolysis of synthetic chromogenic peptide substrates ([S]: 500 μM Suc-Ala-Ala-Pro-Phe-pNA; Bachem L-1400) is measured in the presence and absence of inhibitor compounds of formula (I) with a microplate reader at room temperature. The enzyme reaction is started by the addition of enzyme ([E]: 5.0 nM Human Skin Chymase; Cortex Biochem CP1129), and 3 hours following that addition data is collected. After subtracting background (no enzyme addition), inhibition is calculated by comparing to wells containing no inhibitor (vehicle).

A short description of series [1]: Bioavailability, ex vivo thrombin inhibition assay after i.v. and p.o. dosing. The series is classed as in vivo. To be noted: rat, plasma, po, male rats. On the procedure:
Bioavailability was determined by an ex vivo thrombin inhibition assay which incorporated hydrolysis rates from drug administered both i.v. and p.o. In this assay male rats were prepared as described above with a Teflon tube implanted in their femoral artery. Blood was drawn from the animals 15 min before dosing with the inhibitor (0.25 mL blood was drawn into a syringe containing 0.025 mL of Sigma sodium citrate) and set aside for analysis. The test compound was dispersed in water (0.3-3.0 mg/mL final conc.) and delivered to the animals (0.25 mL) either i.v. or p.o.. […] This sample was analyzed for thrombin inhibition using the chromogenic assay, described below.
The rate of increase in absorbance at 405 nm of synthetic peptides (50 μM Spectozyme® TH (H-D-HHT-Ala-Arg-pNA-2AcOH), American Diagnostica) was measured in the presence of plasma with a microplate reader (Molecular Devices) at 37° C. using an aqueous buffer (10 mM Tris, 10 mM Hepes, 150 mM NaCI, 0.1% PEG; pH 7.4). […] Datum were collected over a 30 min period and the initial rate of substrate hydrolysis (VO (mOD/min)) was calculated with an analysis program (Softmax, Molecular Devices). […]
The percentage of thrombin inhibition in the treated animals was calculated by comparing the V0 prior to treatment with the V0 obtained from samples collected after treatment. […]

In series [2] the target is T1, Human Skin Chymase (Homo sapiens, UniProt P23946).
T1 construct: purchased Cortex Biochem CP1129; host or cells: human skin
T1 sequence (P23946 22-247): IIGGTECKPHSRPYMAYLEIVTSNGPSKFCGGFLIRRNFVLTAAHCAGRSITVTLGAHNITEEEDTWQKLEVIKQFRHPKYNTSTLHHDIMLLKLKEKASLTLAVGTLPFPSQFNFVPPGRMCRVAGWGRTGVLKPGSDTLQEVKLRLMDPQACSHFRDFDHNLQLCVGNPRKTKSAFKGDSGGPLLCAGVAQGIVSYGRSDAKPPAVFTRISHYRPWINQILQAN
Description: Chymase 10 μM Screen Method. The class given is biochemical. To be noted: read-out: Chymase % Inhibition (10 μM). How it is done: The enzyme reaction is started by the addition of enzyme ([E]: 1.0 nM human Lung Tryptase; Cortex Biochem CP3033). Data is collected over a period of 30 min. and the initial rate of substrate hydrolysis (Vo (mOD/min)) is calculated. Inhibition is calculated by comparing to wells containing no inhibitor (vehicle) and IC50 s are determined using a four parameter fit logistics model. […] Data is collected over a period of 30 min. and the initial rate of substrate hydrolysis (Vo (mOD/min)) is calculated. Inhibition is calculated by comparing to wells containing no inhibitor (vehicle) and IC50 s are determined using a four parameter fit logistics model. […] The enzyme reaction is started by the addition of enzyme ([E]: 5.0 nM Human Skin Chymase; Cortex Biochem CP1129), and 3 hours following that addition data is collected. After subtracting background (no enzyme addition), inhibition is calculated by comparing to wells containing no inhibitor (vehicle).

For series [3], the target named is T1, Human Skin Chymase. In words: Chymase IC50 Method. The series is classed as biochemical. To be noted: 37° C., 10.0 nM enzyme, 500 μM substrate. On the procedure:
as §1

In turn, `CN[C@H](Cc1ccccc1)C(=O)N1CCC[C@H]1C(=O)N[C@@H](CCCNC(=N)N)C(=O)c1nc2ccccc2s1` [Compound 1] showed a half-life in the series “in vivo” of 19 min. The molecule further had a negative-log IC50 (pIC50) on human Lung Tryptase of 8.12. This molecule registered a bioavailability in series [1] of 1.2%. The inhibition at 10 µM at Human Skin Chymase [2] (10 μM, room temperature, 5.0 nM enzyme, 3 hours) worked out at 2%.
`CN[C@H](Cc1ccccc1)C(=O)N1CCC[C@H]1C(=O)N[C@@H](Cc1ccccc1)C(=O)c1nc2ccccc2s1` [Compound 38]: at Human Skin Chymase [3], the pIC50 is 5.57. For the same molecule, the inhibition at 10 µM at Human Skin Chymase [2] came to 94%.
